We go through one substance from US8067015B2, “Methods and compositions for the treatment and prevention of Staphylococcus and other bacterial infections” (priority 1997, dated 2011).

Assay [1] relates to S. epidermidis MSSE strain. Nature of the assay: Rat subcutaneous Dacron graft infection model, MSSE strain. As to conditions: for Bacterial concentration, MSSE: 2×10^7 bacteria, explanted day 7; for Bacterial concentration, MSSE / Bacterial load on graft, MSSE: mean ± SD; for Bacterial load on graft, MSSE: Table 3A S. epidermidis. The class given is in vivo. How it is done:
(§1) Rats (Wistar adult males (300-350 g), n=15/experimental group) were anaesthetized, hair on their back shaved and the skin cleansed with 10% povidone-iodine solution. A subcutaneous pocket was made on the side of the median line by a 1.5 cm incision. Aseptically, 1 cm^2 sterile collagen-sealed Dacron graft (Albograft™, Sorin Biomedica Cardio, S.p.A., Saluggi VC, Italy) was implanted into the pocket. […] Pockets were closed by skin clips and 1 ml sterile saline solution with or without 2×10^7 bacteria was inoculated onto the graft surface using a tuberculin syringe to create a subcutaneous fluid-filled pocket. Some of the animals that had grafts soaked only with RIP or saline were injected intraperitoneally with antibiotics (cefazolin 30 mg/kg, imipenem 30 mg/kg, teicoplanin 10 mg/kg, levofloxacin 10 mg/kg). Grafts were explanted 7 days following implantation.
(§2) The explanted grafts were placed in sterile tubes, washed in sterile saline solution, placed in tubes containing 10 ml of phosphate-buffered saline solution and sonicated for 5 min to remove the adherent bacteria from the grafts. Quantitation of viable bacteria was performed by culturing serial 10-fold dilutions (0.1 ml) of the bacterial suspension on blood agar plates. All plates were incubated at 37° C. for 48 hr and evaluated for the presence of the strain. Bacteria were quantitated by counting the number of colony forming unites (CFU) per plate. To determine if bacteria were efficiently removed from the graft, washed and sonicated grafts were observed under a Nikon Eclipse E 600 optical microscope (Nikon Y-THS, Japan).
Quantitative culture results of the in vivo experiments were presented as mean+SD of the mean. Comparisons of the results were performed by the analysis of variance (ANOVA) on the log-transformed data. Statistical analysis was performed for in vitro adhesion assays using Student's t-Test by Microsoft Excel (Microsoft, Wash.). Significance was accepted when the P value was <0.05.
To test if RIP can prevent graft-associated infections, Dacron grafts were coated with or without RIP, and with or without various types of antibiotics (for local prophylaxis experiments). Coated grafts were implanted in rats, bacteria injected into the implants, implants removed after a week, and bacterial load determined. Alternatively, Dacron grafts were first coated with RIP, bacteria injected, and antibiotics were administered by the intraperitoneal route (for parenteral prophylaxis experiments). As a negative control, grafts were implanted without local or parenteral RIP/antibiotics prophylaxis and no bacteria were injected. As a positive control, grafts were implanted, bacteria were injected, but no RIP/antibiotics prophylaxis was given.
Animals (15/group) received a Dacron-graft implanted in a subcutaneous pocket. Graft was subsequently infected with either S. epidermidis (tested on MSSE, MRSE and GISE) or with S. aureus (tested on MSSA, MRSA and GISA). […]

Assay [2] has as its system S. aureus GISA. Put plainly: Rat subcutaneous Dacron graft infection model, GISA strain. Type of assay: in vivo. As to conditions: Table 3B S. aureus, mean ± SD. As to the method: as §1, with “implantation. Estimated RIP that adhered to graft was 10-26 μg.” for “implantation.”
as §2
(§3) Animals (15/group) received a Dacron-graft implanted in a subcutaneous pocket. Graft was subsequently infected with either S. epidermidis (tested on MSSE, MRSE and GISE) or with S. aureus (tested on MSSA, MRSA and GISA). The Dacron-graft prior to implantation was soaked in saline with or without 20 mg/l of RIP and some animals received […] of RIP i.p. as a prophylaxis treatment.

For assay [3], the system named is S. aureus MRSA. Nature of the assay: Rat subcutaneous Dacron graft infection model, MRSA strain. The class given is in vivo. As to conditions: Table 3B S. aureus, mean ± SD. How it is done: as §1, with “implantation. Estimated RIP that adhered to graft was 10-26 μg.” for “implantation.”
as §2, §3

Assay [4] has as its system S. aureus MSSA. Nature of the assay: Rat subcutaneous Dacron graft infection model, MSSA strain. The class given is in vivo. As to conditions: Table 3B S. aureus, mean ± SD. How it is done: as §1, with “implantation. Estimated RIP that adhered to graft was 10-26 μg.” for “implantation.”
as §2, §3

For assay [5], the system named is S. epidermidis adherence to HaCat cells. Nature of the assay: Adherence of FITC-labeled S. epidermidis to HaCat cells. As to conditions: 5 μg RIP, 10^6 CFU, 30 min at 37° C. The class given is cell-based. As to the method: FIG. 14A is a graph depicting adherence in the presence of RIP (RIP+) and in the absence of RIP (RIP−). FITC-labeled bacterial cells (10^6 CFU) were applied to microtiter plates containing confluent 10^4 HaCat cells, in the presence or absence of 5 μg RIP (RIP+/−). Cells were incubated for 30 min at 37° C., washed in PBS and fluorescence at 485/530 nm was determined.
Virulence of S. epidermidis is also often associated with their ability to adhere to host cells and to form biofilm on medical devices. To test whether RIP can prevent S. epidermidis from colonizing host cells and therefore be a candidate for therapy and prevention, FITC-labeled S. epidermidis were incubated in the presence or absence of RIP with a confluent layer of keratinocytes (HaCat cells) for 30 min.

Assay [6] relates to S. aureus 8325-4. As to conditions: rabbits; cited from earlier work.
Assay [7] has as its system bacterial adhesion to HEp2 cells. As to conditions: cited from earlier work.
For assay [8], the system named is bacterial adhesion to polystyrene, silicone and polyurethane. The following applies: cited from earlier work.
[9] abbreviates: RIP local (graft soaked in 20 mg/l RIP).
Setting [10] is: RIP parenteral (10 mg/l RIP i.p.).

Where no end group is shown, it is not given here.

Take YSPWTNF(—NH2) (YSPWTNF-NH2) [RIP]: the “Bacterial concentration, MSSE” value in assay [1] (A. Local prophylaxis: graft soaked 20 min in RIP 10 mg/l and/or antibiotic (mupirocin 100, quinupristin-dalfopristin 50, levofloxacin 30, rifampin 5 mg/l), rats) is on record as 0.91 ± 0.23 ×10^4 CFU/ml; in assay [1] (B. Parenteral prophylaxis: antibiotic intraperitoneally (cefazolin 30, imipenem 30, teicoplanin 10, levofloxacin 10 mg/kg), RIP as 10 mg/l graft soak, rats), 0.91 ± 0.23 ×10^4 CFU/ml. For the same substance, the “Bacterial load on graft, MSSE” value is given as 0.08 ± 0.024 ×10^4 CFU/ml in assay [1] (setting [9]); 0.00 ± 0 ×10^4 CFU/ml in assay [1] (RIP local + RIP parenteral); 0.067 ± 0.019 ×10^4 CFU/ml in assay [1] (setting [10]); 0.55 ± 0.19 ×10^4 CFU/ml in assay [4] (setting [9]); 0.00 ± 0 ×10^4 CFU/ml in assay [4] (RIP local + RIP parenteral); 0.045 ± 0.009 ×10^4 CFU/ml in assay [4] (setting [10]). For the same substance, the “Quantitative culture results of explanted graft, MSSE strain” value in assay [1] (peptide-soaked/coated Dacron graft (RIP 10 mg/l), no antibiotic, rats, day 7) is listed as 9.1×10^3±2.3×10^3 CFU/ml. Besides, the results for the “Bacterial load on graft, GISE” value in assay [2] (setting [9]), in assay [2] (RIP local + RIP parenteral) and in assay [2] (setting [10]) were 0.70 ± 0.28 ×10^4 CFU/ml, 0.00 ± 0 ×10^4 CFU/ml and 0.49 ± 0.11 ×10^4 CFU/ml, respectively. Also, the entries for the “Bacterial load on graft, MRSE” value in assay [3] (setting [9]), in assay [3] (RIP local + RIP parenteral) and in assay [3] (setting [10]) were 0.62 ± 0.21 ×10^4 CFU/ml, 0.00 ± 0 ×10^4 CFU/ml and 0.29 ± 0.088 ×10^4 CFU/ml, respectively. Further, the “S. epidermidis adherence to HaCat cells” value in assay [5] was “significantly (p<0.05) reduced”. Besides, the “Suppressing S. aureus infection: keratitis” value in assay [6] is listed as “extremely effective”. The “Bacterial adhesion to eukaryotic cells” value in assay [7] is reported as “decreased”. For the same substance, the “Bacterial adhesion to plastic” value in assay [8] is on record as “decreased”.
